Assay results as given in article doi:10.1101/2022.07.25.501355v1, “Building artificial plant cell wall on lipid bilayer by assembling polysaccharides and engineered proteins” (biorxiv, 2022).

Legend:
[1] = target: T1, diCBM77Rf (Ruminococcus flavefaciens, UniProt A0A1A9TA81); test: isothermal titration calorimetry; type: binding; conditions: 25 °C; 20 mM Tris pH 7.5, 100 mM NaCl (ligand in 20 mM Tris pH 7.5); N fixed at 2 in the fit; no full sigmoid; ligand mainly DP7 with some DP8
T1 construct: CBM77 domain only; N-terminal His-tag cut by TEV; E. coli BL21(DE3)
T1 sequence (A0A1A9TA81 2-115): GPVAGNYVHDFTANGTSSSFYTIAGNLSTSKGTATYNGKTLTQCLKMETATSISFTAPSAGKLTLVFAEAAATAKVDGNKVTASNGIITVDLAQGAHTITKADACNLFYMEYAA
Text: isothermal titration calorimetry on diCBM77Rf

[2] = target: Janus lectin RSL-CBM77Rf; type: binding, Ralstonia nicotianae / Ruminococcus flavefaciens; conditions: 25 °C; 20 mM Tris pH 7.5, 100 mM NaCl (ligand in 20 mM Tris pH 7.5); site on CBM77Rf part; ligand mainly DP7 with some DP8

Work on `O=C(O)[C@H]1O[C@H](O[C@@H]2[C@H](O)[C@@H](O)[C@@H](O[C@@H]3[C@H](O)[C@@H](O)[C@@H](O[C@@H]4[C@H](O)[C@@H](O)[C@@H](O[C@@H]5[C@H](O)[C@@H](O)[C@@H](O[C@@H]6[C@H](O)[C@@H](O)[C@@H](O[C@@H]7[C@H](O)[C@@H](O)C(O)O[C@@H]7C(=O)O)O[C@@H]6C(=O)O)O[C@@H]5C(=O)O)O[C@@H]4C(=O)O)O[C@@H]3C(=O)O)O[C@@H]2C(=O)O)[C@H](O)[C@@H](O)[C@H]1O` (some centres unmarked) [GalA_DP7] yielded a Kd [1] of 1280 ± 100 µM and a Kd [2] of 103 ± 15 µM.
